Measurements published in US9468209B2, “Method for eradicating weeds with derivatives of 3-acetyl-5-sec-butyl-4-hydroxy-3-pyrrolin-2-one” (priority 2012, dated 2016).

What was measured:
Experiment in all cases: Leaf piece damage test
Format in all cases: in vivo
Design in all cases: key: 4: The leaf completely dead; 3: Two third of the leaf withered; 2: One half of the leaf withered; 1: Only edge of the leaf withered; 0: Not damage at all
Details in all cases: 50 μg/mL, 4 days
Mosla scabra = test system: Mosla scabra
Protocol: (§1) Compounds 7, 14, 15, 16, 40, 45, 48 and 53 were dissolved individually in small amount of methanol, and diluted with distilled water to concentration of 50 μg/mL. Methanol water solution and pure water were used as control. A piece of 5 mm leaf was taken from the second leaf of weed sample and was treated with the solution three times. 5 pieces of the leaf were prepared for each treatment. The damage data were collected 4 days later. The measurement of damage level is described in the Table 9.
(§2) The measurement of the plant damage was calculated by the formula: Damage Index=Σ(damage level×number of plants)×100/4/number of plants in each treatment.

Eclipta prostrata = test system: Eclipta prostrata
Protocol: as §1, §2

Youngia japonica = test system: Youngia japonica
Protocol: as §1, §2

Oxalis corniculata = test system: Oxalis corniculata
Protocol: as §1, §2

[1] = test system: Barbyardgrass Echinochloa crusgalli
Protocol: as §1, §2

Pharbitis nil = test system: Pharbitis nil
Protocol: as §1, §2

Xanthium sibiricum = test system: Xanthium sibiricum
Protocol: as §1, §2

[2] = test system: Crabgrass (Digitaria sanguinalis)
Protocol: as §1, §2

Veronica percica = test system: Veronica percica
Protocol: as §1, §2

Japanese alopecurus = test system: Japanese alopecurus
Protocol: as §1, §2

Sonchus oleraceus = test system: Sonchus oleraceus
Protocol: as §1, §2

Polygonum perfoliatum = test system: Polygonum perfoliatum
Protocol: as §1, §2

[3] = test system: Pigweed (Amaranthus spinosus)
Protocol: as §1, §2

[4] = test system: Redroot pigweed (Amaramthus retroflexus)
Protocol: as §1, §2

Trifolium pretense = test system: Trifolium pretense
Protocol: as §1, §2

Wild oats = test system: Wild oats
Protocol: as §1, §2

Plantago asiatica = test system: Plantago asiatica
Protocol: as §1, §2

Leptochloa chinensis = test system: Leptochloa chinensis
Protocol: as §1, §2

Conyza canademsis = test system: Conyza canademsis
Protocol: as §1, §2

Acalypha australis = test system: Acalypha australis
Protocol: as §1, §2

Chenopodium serotinum = test system: Chenopodium serotinum
Protocol: as §1, §2

Galeopsis bifida = test system: Galeopsis bifida
Protocol: as §1, §2

Row | Structure (SMILES) | Damage level (Mosla scabra) | Damage level (Eclipta prostrata) | Damage level (Youngia japonica) | Damage level (Oxalis corniculata) | Damage level [1] | Damage level (Pharbitis nil) | Damage level (Xanthium sibiricum) | Damage level [2] | Damage level (Veronica percica) | Damage level (Japanese alopecurus) | Damage level (Sonchus oleraceus) | Damage level (Polygonum perfoliatum) | Damage level [3] | Damage level [4] | Damage level (Trifolium pretense) | Damage level (Wild oats) | Damage level (Plantago asiatica) | Damage level (Leptochloa chinensis) | Damage level (Conyza canademsis) | Damage level (Acalypha australis) | other results
1 | CCCCC1NC(=O)C(C(C)=O)=C1O (stereo not shown) [Compound 14] | 2 | 3 | 3 | 4 | 4 | 2 | 2 | 4 | 2 | 3 | 3 | 2 | 2 | 2 | 3 | 3 | 2 | 4 | 3 | 2 | Damage level (Chenopodium serotinum): 2; Damage level (Galeopsis bifida): 2
2 | CCCCCC1NC(=O)C(C(C)=O)=C1O (stereo not shown) [Compound 15] | 2 | 4 | 3 | 3 | 4 | 3 | 2 | 4 | 2 | 3 | 3 | 2 | 2 | 2 | 3 | 3 | 3 | 4 | 3 | 2 | Damage level (Chenopodium serotinum): 2; Damage level (Galeopsis bifida): 2
3 | CCCCCCC1NC(=O)C(C(C)=O)=C1O (stereo not shown) [Compound 16] | 2 | 3 | 3 | 4 | 4 | 2 | 2 | 4 | 2 | 3 | 3 | 3 | 2 | 3 | 3 | 3 | 2 | 4 | 3 | 2 | Damage level (Chenopodium serotinum): 2; Damage level (Galeopsis bifida): 2
4 | CCCC(Cl)C1NC(=O)C(C(C)=O)=C1O (stereo not shown) [Compound 40] | 2 | 3 | 3 | 4 | 4 | 2 | 2 | 4 | 3 | 3 | 3 | 3 | 2 | 3 | 3 | 3 | 3 | 4 | 3 | 3 | Damage level (Chenopodium serotinum): 2; Damage level (Galeopsis bifida): 3
5 | CCC(C)C1NC(=O)C(C(=O)CCF)=C1O (stereo not shown) [Compound 44] | 2 | 4 | 3 | 4 | 4 | 3 | 2 | 4 | 3 | 4 | 3 | 3 | 3 | 2 | 4 | 3 | 3 | 4 | 4 | 3 | Damage level (Chenopodium serotinum): 3; Damage level (Galeopsis bifida): 3
6 | CCC(C)C1NC(=O)C(C(=O)CCc2cc(Cl)cc(Cl)c2)=C1O (stereo not shown) [Compound 48] | 2 | 4 | 3 | 4 | 4 | 3 | 3 | 4 | 3 | 4 | 4 | 3 | 3 | 2 | 4 | 3 | 2 | 4 | 4 | 3 | Damage level (Chenopodium serotinum): 3; Damage level (Galeopsis bifida): 2
7 | CCCC(C#N)C1NC(=O)C(=C(C)O)C1=O (stereo not shown) [Compound 53] | 2 | 4 | 4 | 4 | 4 | 3 | 3 | 4 | 3 | 3 | 4 | 3 | 3 | 3 | 4 | 3 | 2 | 4 | 3 | 2 | Damage level (Chenopodium serotinum): 3; Damage level (Galeopsis bifida): 3
